Patent EP0341019A2, “Polyether antibiotic” (priority 1988, dated 1989)
Several values for one entry are separate records, joined by “and”; a condition that tells them apart may be missing. Equal values may be shown once. Positions of bridges follow the written chain, without caps; N, C: chain ends. Non-standard residues stand in square brackets, D forms with d. Residues, ends and D or L forms follow the SMILES beside them. *: point of attachment. Ileψ(thiazoline)Cys = CC[C@H](C)[C@H](N)C1=N[C@H](C(=O)*)CS1; dOrn = NCCC[C@@H](N)C(=O)O

Key:
[1] = test system: Eimeria acervulina Strain 59 And E. tenella Strain 155; assay: anticoccidial feed test in infected chickens, ionophore-sensitive strains; format: in vivo; details: A82810 0 ppm
[2] = test system: Eimeria maxima Strain FS-177; assay: anticoccidial feed test in infected chickens, ionophore-sensitive strain; format: in vivo; details: A82810 0 ppm
E. maxima Strain LIT-626 = assay: anticoccidial feed test in infected chickens, ionophore-resistant strain; format: in vivo; details: Table XIII; A82810 0 ppm; Benzeneamine ppm r4-r7: 8,10,12,14
[3] = test system: Eimeria acervulina Strain FS-273 and E. tenella Strain FS-456; assay: anticoccidial feed test in infected chickens, ionophore-resistant strains; format: in vivo; details: Table XX, A82810 0 ppm
[4] = test system: Eimeria acervulina Strain FS-316 And E. tenella Strain FS-456; assay: as above; format: in vivo; details: A82810 0 ppm
[5] = test system: E. acervulina Strain FS-316; assay: anticoccidial feed test in infected chickens, ionophore-resistant strain; format: in vivo; details: Table X, A82810 0 ppm
[6] = test system: Eimeria acervulina H & C and Eimeria tenella Wis; assay: anticoccidial feed test in infected chickens, ionophore-sensitive strains; format: in vivo; details: Table XIX, A82810 0 ppm
[7] = test system: Eimeria maxima Strain FS-410; assay: anticoccidial feed test in infected chickens, ionophore-resistant strain; format: in vivo; details: A82810 0 ppm
[8] = test system: culture A82810.1 (Actinomadura fibrosa sp. nov. NRRL 18348); assay: antibiotic sensitivity disc test on seeded ISP No. 2 agar; format: cell-based; design: key to Resistance to: (A82810.1): Resistance was scored as (+) when no zone of inhibition was observed; (-) when a zone of inhibition was observed; details: for resistance / sensitivity of culture A82810.1 to the antibiotic: cephalothin 30 µg, lincomycin 2 µg, penicillin G 10 units, rifampin 5 µg, lysozyme 50 µg/mL, bacitracin 10 units, gentamicin 10 µg, neomycin 30 µg, oleandomycin 15 µg, streptomycin 10 µg, tetracycline 30 µg, tobramycin 10 µg, vancomycin 30 µg; for Resistance to: (A82810.1): Oleandomycin 16 µg, Penicillin G 10 units
Method: (§1) Resistance to antibiotics was measured by padding antibiotic sensitivity discs onto the surface of seeded ISP No. 2 agar plates. Resistance was scored as (+) when no zone of inhibition was observed and as (-) when a zone of inhibition was observed.

A. verrucosospora = assay: antibiotic sensitivity disc test (species comparison); format: cell-based; design: key: Resistance was scored as (+) when no zone of inhibition was observed; (-) when a zone of inhibition was observed; details: Oleandomycin 16 µg; Penicillin G 10 units
Method: as §1

[9] = Benzeneamine ppm r4-r6: 8,12,16
[10] = Benzeneamine ppm r10-r12: 8,12,16

## O=[N+]([O-])c1cc([N+](=O)[O-])c(Nc2ccc(Br)c3ccccc23)c(C(F)(F)F)c1 [4-Bromo-N-[2,4-dinitro-6-trifluoromethyl)phenyl]-1-naphthaleneamine]
[1]; Table XXIV, 4-Bromo naphthaleneamine ppm r4-r7: 4,8,12,16
  WEIGHT GAIN, PERCENT OF CONTROL: 73% OF CONTROL and 66% OF CONTROL and 72% OF CONTROL and 67% OF CONTROL
[1]; Table XXIV, 4-Bromo naphthaleneamine ppm r11-r14: 4,8,12,16
  AVERAGE INTESTINAL LESION SCORES: 6.2 and 6.9 and 6.6 and 3.8
[1]; Table XXIV, 4-Bromo naphthaleneamine ppm r18-r21: 4,8,12,16
  AVERAGE CECAL LESION SCORES: 2.9 and 3.5 and 3.0

## O=[N+]([O-])c1cc([N+](=O)[O-])c(Nc2ccc(Cl)c3ccccc23)c(C(F)(F)F)c1 [4-chloro-N-[2,4-dinitro-6-(trifluoromethyl)phenyl]-1-naphthaleneamine]
[1]; Table XXII, 4-chloro naphthaleneamine ppm r11-r14: 4,8,12,16
  WEIGHT GAIN, PERCENT OF CONTROL: 80% OF CONTROL and 78% OF CONTROL and 92% OF CONTROL
[2]; Table XXIII, 4-chloro naphthaleneamine ppm r11-r14: 4,8,12,16
  WEIGHT GAIN, PERCENT OF CONTROL: 87% OF CONTROL and 80% OF CONTROL and 85% OF CONTROL and 84% OF CONTROL

## O=[N+]([O-])c1cc([N+](=O)[O-])c(Nc2ccc(OC(F)(F)C(F)F)cc2)c(C(F)(F)F)c1 [Benzeneamine, 2,4-Dinitro-N-[4-(1,1,2,2-tetrafluoroethoxy)phenyl]-6-(trifluoromethyl)benzeneamine]
E. maxima Strain LIT-626
  WEIGHT GAIN, PERCENT OF CONTROL: 94% OF CONTROL and 99% OF CONTROL and 93% OF CONTROL and 98% OF CONTROL
[3]; [9]
  LESION SCORE: 9.4 and 8.4 and 8.0
[3]; [10]
  WEIGHT GAIN, PERCENT OF CONTROL: 70% OF CONTROL and 72% OF CONTROL and 74% OF CONTROL
[3]; Benzeneamine ppm r16-r18: 8,12,16
  PERCENT REDUCTION IN OOCYST PRODUCTION: 17% and 18% and 20%
[4]; Table IX, Benzeneamine ppm r4-r8: 16,18,20,22,24
  WEIGHT GAIN, PERCENT OF CONTROL: 91% OF CONTROL and 84% OF CONTROL and 88% OF CONTROL and 85% OF CONTROL
[4]; Table IX, Benzeneamine ppm r20-r24: 16,18,20,22,24
  AVERAGE CECAL LESION SCORES: 2.9 and 3.0 and 2.6 and 1.6
[4]; Table VII, Benzeneamine ppm r11-r14: 4,8,12,16
  WEIGHT GAIN, PERCENT OF CONTROL: 90% OF CONTROL and 94% OF CONTROL and 88% OF CONTROL and 87% OF CONTROL
[4]; Table VIII, Benzeneamine ppm r4-r7: 8,10,12,14
  WEIGHT GAIN, PERCENT OF CONTROL: 76% OF CONTROL and 77% OF CONTROL and 75% OF CONTROL and 70% OF CONTROL
[4]; Table VIII, Benzeneamine ppm r11-r14: 8,10,12,14
  AVERAGE INTESTINAL LESION SCORES: 5.9 and 4.8 and 4.5
[4]; Table VIII, Benzeneamine ppm r18-r21: 8,10,12,14
  AVERAGE CECAL LESION SCORES: 3.3 and 3.2 and 3.1 and 2.8
[1]; Table VI, Benzeneamine ppm r4-r7: 4,8,12,16
  TOTAL LESION SCORE: 12.4 and 10.9 and 10.4 and 10.8
[1]; Table VI, Benzeneamine ppm r11-r14: 4,8,12,16
  WEIGHT GAIN, PERCENT OF CONTROL: 75% OF CONTROL and 68% OF CONTROL and 73% OF CONTROL and 76% OF CONTROL
[5]; Benzeneamine ppm r4-r7: 4,8,12,16
  WEIGHT GAIN, PERCENT OF CONTROL: 74% OF CONTROL and 71% OF CONTROL and 82% OF CONTROL and 75% OF CONTROL
[5]; Benzeneamine ppm r11-r14: 4,8,12,16
  AVERAGE INTESTINAL LESION SCORES: 6.9 and 8.4 and 6.3 and 5.8
[2]; Table XI, Benzeneamine ppm r4-r6: 8,12,16
  INTESTINAL LESION SCORE: 3.6 and 3.9 and 3.3
[2]; Table XI, Benzeneamine ppm r10-r12: 8,12,16
  WEIGHT GAIN, PERCENT OF CONTROL: 77% OF CONTROL and 84% OF CONTROL and 87% OF CONTROL
[2]; Table XII, Benzeneamine ppm r4-r6: 8,12,16
  AVERAGE INTESTINAL LESION SCORES: 2.6 and 2.2 and 2.3
[2]; Table XII, Benzeneamine ppm r10-r12: 8,12,16
  WEIGHT GAIN, PERCENT OF CONTROL: 79% OF CONTROL and 88% OF CONTROL and 102% OF CONTROL
[6]; [9]
  AVERAGE INTESTINAL LESION SCORES: 6.0 and 5.1 and 4.7
[6]; [10]
  WEIGHT GAIN, PERCENT OF CONTROL: 62% OF CONTROL and 64% OF CONTROL and 69% OF CONTROL
[7]; Table XIV, Benzeneamine ppm r4-r7: 8,10,12,14
  WEIGHT GAIN, PERCENT OF CONTROL: 90% OF CONTROL and 88% OF CONTROL and 92% OF CONTROL
[7]; Table XIV, Benzeneamine ppm r11-r14: 8,10,12,14
  AVERAGE INTESTINAL LESION SCORES: 3.8 and 3.7 and 3.3
[7]; Table XV, Benzeneamine ppm r4-r7: 9,10,11,12
  WEIGHT GAIN, PERCENT OF CONTROL: 90% OF CONTROL and 94% OF CONTROL and 87% OF CONTROL and 84% OF CONTROL
[7]; Table XV, Benzeneamine ppm r11-r14: 9,10,11,12
  AVERAGE INTESTINAL LESION SCORES: 4.0 and 3.8 and 3.7
[7]; Table XVI, Benzeneamine ppm r4-r8: 16,18,20,22,24
  WEIGHT GAIN, PERCENT OF CONTROL: 71% OF CONTROL and 76% OF CONTROL and 81% OF CONTROL and 79% OF CONTROL and 83% OF CONTROL
[7]; Table XVI, Benzeneamine ppm r12-r16: 16,18,20,22,24
  AVERAGE INTESTINAL LESION SCORES: 4.0 and 3.1 and 3.4 and 3.7 and 2.6
[7]; Table XVII, Benzeneamine ppm r4-r6: 8,12,16
  LESION SCORE: 3.3 and 2.9 and 2.4
[7]; Table XVII, Benzeneamine ppm r10-r12: 8,12,16
  WEIGHT GAIN, PERCENT OF CONTROL: 68% OF CONTROL and 59% OF CONTROL and 74% OF CONTROL
[7]; Table XVIII, Benzeneamine ppm r4-r6: 8,12,16
  INTESTINAL LESION SCORE: 4.0 and 3.9 and 3.3
[7]; Table XVIII, Benzeneamine ppm r10-r12: 8,12,16
  WEIGHT GAIN, PERCENT OF CONTROL: 91% OF CONTROL and 95% OF CONTROL and 93% OF CONTROL

## CC[C@H](C)[C@H](N)C1=N[C@H](C(=O)N[C@@H](CC(C)C)C(=O)N[C@H](CCC(=O)O)C(=O)N[C@H](C(=O)N[C@H]2CCCCNC(=O)[C@H](CC(N)=O)NC(=O)[C@@H](CC(=O)O)NC(=O)[C@H](Cc3cnc[nH]3)NC(=O)[C@@H](Cc3ccccc3)NC(=O)[C@H]([C@@H](C)CC)NC(=O)[C@@H](CCCN)NC2=O)[C@@H](C)CC)CS1 [bacitracin] ({Ileψ(thiazoline)Cys}-L[dE]IK[dOrn]I[dF]H[dD]N; lactam 4-C)
[8]
  resistance / sensitivity of culture A82810.1 to the antibiotic: sensitive

## CC(=O)OCC1=C(C(=O)O)N2C(=O)[C@@H](NC(=O)Cc3cccs3)[C@H]2SC1 [cephalothin]
[8]
  resistance / sensitivity of culture A82810.1 to the antibiotic: resistant

## CCC[C@@H]1C[C@@H](C(=O)N[C@@H]([C@H]2O[C@H](SC)[C@H](O)[C@@H](O)[C@H]2O)[C@@H](C)O)N(C)C1 [lincomycin]
[8]
  resistance / sensitivity of culture A82810.1 to the antibiotic: resistant

## CO[C@H]1C[C@H](O[C@H]2[C@H](C)[C@@H](O[C@@H]3O[C@H](C)C[C@H](N(C)C)[C@H]3O)[C@@H](C)C[C@@]3(CO3)C(=O)[C@H](C)[C@@H](O)[C@@H](C)[C@@H](C)OC(=O)[C@@H]2C)O[C@@H](C)[C@@H]1O [oleandomycin]
[8]
  Resistance to: (A82810.1): -
  resistance / sensitivity of culture A82810.1 to the antibiotic: sensitive
A. verrucosospora
  Resistance to: (A. verrucosospora): +

## CC1(C)S[C@@H]2[C@H](NC(=O)Cc3ccccc3)C(=O)N2[C@H]1C(=O)O [penicillin G]
[8]
  Resistance to: (A82810.1): +
  resistance / sensitivity of culture A82810.1 to the antibiotic: resistant
A. verrucosospora
  Resistance to: (A. verrucosospora): -

## CO[C@H]1/C=C/O[C@@]2(C)Oc3c(C)c(O)c4c(O)c(c(/C=N/N5CCN(C)CC5)c(O)c4c3C2=O)NC(=O)/C(C)=C\C=C\[C@H](C)[C@H](O)[C@@H](C)[C@@H](O)[C@@H](C)[C@H](OC(C)=O)[C@@H]1C [rifampin]
[8]
  resistance / sensitivity of culture A82810.1 to the antibiotic: resistant

## [H]/N=C(/N)N[C@H]1[C@H](O)[C@@H](O)[C@H](O[C@@H]2O[C@@H](C)[C@](O)(C=O)[C@H]2O[C@@H]2O[C@@H](CO)[C@H](O)[C@@H](O)[C@@H]2NC)[C@@H](N/C(N)=N\[H])[C@@H]1O [streptomycin]
[8]
  resistance / sensitivity of culture A82810.1 to the antibiotic: sensitive

## NC[C@H]1O[C@H](O[C@H]2[C@H](O)[C@@H](O[C@H]3O[C@H](CO)[C@@H](O)[C@H](N)[C@H]3O)[C@H](N)C[C@@H]2N)[C@H](N)C[C@@H]1O [tobramycin]
[8]
  resistance / sensitivity of culture A82810.1 to the antibiotic: sensitive

## CN[C@H](CC(C)C)C(=O)N[C@H]1C(=O)N[C@@H](CC(N)=O)C(=O)N[C@H]2C(=O)N[C@H]3C(=O)N[C@H](C(=O)N[C@H](C(=O)O)c4cc(O)cc(O)c4-c4cc3ccc4O)[C@H](O)c3ccc(c(Cl)c3)Oc3cc2cc(c3O[C@@H]2O[C@H](CO)[C@@H](O)[C@H](O)[C@H]2O[C@H]2C[C@](C)(N)[C@H](O)[C@H](C)O2)Oc2ccc(cc2Cl)[C@H]1O [vancomycin]
[8]
  resistance / sensitivity of culture A82810.1 to the antibiotic: sensitive

## gentamicin
[8]
  resistance / sensitivity of culture A82810.1 to the antibiotic: sensitive

## neomycin
[8]
  resistance / sensitivity of culture A82810.1 to the antibiotic: sensitive
